Assay results as given in patent publication US10538521B2, “Pyrimidine derivative having antimalarial activity” (CARNA BIOSCIENCES, INC., priority 2016, dated 2020).
pIC50: −log10 of the molar value.

Key:
[1] = test system: K1 strain, a drug resistant strain of Plasmodium falciparum; test: In vitro antimalarial assay (p-LDH, Malstat), K1 strain; assay type: cell-based; conditions: P. falciparum K1 (drug resistant), 72 h culture, p-LDH readout, read-out: Antimalarial activity (IC50 value), Strain K1
Text: (§1) For the evaluation of the antimalarial activity of the compound of the present invention, K1 strain, a drug resistant strain of Plasmodium falciparum, and FCR3 strain, a drug sensitive strain thereof, which were generous gift from Professor Kiyoshi Kita of the Graduate School of Medicine and Faculty of Medicine, the University of Tokyo, were used to measure the in vitro antimalarial activity of the compound against those Plasmodium species according to the method established by Otoguro et al. (Otoguro, K., Kohana, A., Manabe, C., Ishiyama, A., Ui, H., Shiomi, K., Yamada, H. & Omura, S.: Potent antimalarial activity of polyether antibiotic, X-206. J. Antibiot., 54: 658-663, (2001)).
(§2) The parasites were grown based on a slightly modified method from the original method reported by Trager and Jensen (Trager, W. and Jensen, J.: Human malaria parasites in continuous culture, Science, 193: 673-677, (1976)), and those which were maintained and sub-cultured by the method were used. More specifically, in a culture dish, erythrocytes infected with the protozoa, which had been sub-cultured using a RPMI 1640 medium to which 10% human plasma had been added and fresh human erythrocytes, were diluted (hematocrit value: 2 to 5%, parasitaemia: 0.25 to 1%), and were cultured at 37° C. in a mixed gas of 3% O2-4% CO2-93% N2, and continuously cultured while changing the medium and adding fresh erythrocytes at 2- or 3-day intervals.
(§3) A drug susceptibility test was performed by modifying the method established by Desjardins et al. (Desjardins, R. E., Canfield, C. J., Haynes, D. E. and Chulay, J. D.: Quantitative assessment of antimalarial activity in vitro by a semiautomated microdilution technique. Antimicrob. Agents Chemother., 16: 710-718 (1979)). More specifically, 190 μL of a suspension of protozoa which had been precultured (hematocrit value: 2%, parasitaemia: 0.5 or 1%) and 10 μL of a solution of a test compound (5% DMSO solution) serially diluted so that the final concentration was 12.5 to 0.0001 μM were put in each well of a 96-well plate, and after mixing, the same was cultured for 72 hours in the above mixed gas.
(§4) For the measurement of the growth of protozoa, the method established by Makler (Makler, M. T., Rise, J. M., Williams, J. A., Bancroft, J. E., Piper, R. C., Gibbins, B. L. and Hinrichs, D. J.: Parasite lactate dehydrogenase as an Assay for Plasmodium falciparum drug sensitivity, Am. J. Med. Hyg., 48: 739-741 (1993)) was modified to colorimetrically determine parasite lactate dehydrogenase (p-LDH) using Malstat reagent (Flow Inc., USA).
(§5) More specifically, 72 hours after the culture, the 96-well plate was directly frozen at −20° C. for 18 hours and melted at 37° C. to hemolyze the protozoan-infected erythrocytes and destroy the protozoa to prepare a crude enzyme solution. 100 μL of Malstat reagent and 20 μL of the crude enzyme solution were added to and mixed in each well of another 96-well plate, and after reacting for 15 minutes at room temperature, 20 μL of a nitroblue tetrazolium 2 mg/mL phenazine ethosulfate 0.1 mg/mL=1:1 solution was added to the respective wells, and reaction was performed in dark conditions at room temperature for 2 hours.
(§6) The absorbance of the blue formazan product formed by the reaction was measured at a measurement wavelength of 655 nm by using a microplate reader (Labsystems, Finland) to colorimetrically determine the growth of the protozoa. The 50% growth inhibitory concentration for the protozoa of the compound (IC50 value) was determined based on the concentration-response curve of the compound.

[2] = test system: FCR3 strain, a drug sensitive strain of Plasmodium falciparum; test: In vitro antimalarial assay (p-LDH, Malstat), FCR3 strain; assay type: cell-based; conditions: P. falciparum FCR3 (drug sensitive), 72 h culture, p-LDH readout, read-out: Antimalarial activity (IC50 value), Strain FCR3
Text: as §1, §2, §3, §4, §5, §6

pIC50 [1] | pIC50 [2] | SMILES
6.00 to 7.00 | 6.00 to 7.00 | c1cc(Nc2nc(Nc3ccn4ccnc4c3)cc(N3CCOCC3)n2)ncn1 [Example 22, N4-(Imidazo[1,2-a]pyridin-7-yl)-6-morpholino-N2-(pyrimidin-4-yl)pyrimidine-2,4-diamine]
5.00 to 6.00 | 6.00 to 7.00 | COc1ccncc1Nc1nc(Nc2ccn3ccnc3c2)cc(N2CCOCC2)n1 [Example 23, N4-(Imidazo[1,2-a]pyridin-7-yl)-N2-(4-methoxypyridin-3-yl)-6-morpholinopyrimidine-2,4-diamine]
5.00 to 6.00 | 5.00 to 6.00 | Cc1ccnc(Nc2nc(Nc3ccn4ccnc4c3)cc(N3CCN(C)CC3)n2)c1 [Example 25, N4-(imidazo[1,2-a]pyridin-7-yl)-6-(4-methylpiperazin-l-yl)-N 2-(4-methylpyridin-2-yl)pyrimidine-2,4-diamine]
> 7.00 | > 7.00 | Cc1ccc(Nc2nc(Nc3ccn4ccnc4c3)cc(N3CCCCC3)n2)nc1 [Example 26, N4-(imidazo[1,2-a]pyridin-7-yl)-N2-(5-methylpyridin-2-yl)-6-(piperidin-1-yl)pyrimidine-2,4-diamine]
6.00 to 7.00 | 5.00 to 6.00 | Cc1ccc(Nc2nc(Nc3ccn4ccnc4c3)cc(N3CCN(C)CC3)n2)nc1 [Example 27, N4-(imidazo[1,2-a]pyridin-7-yl)-6-(4-methylpiperazin-1-yl)-N 2-(5-methylpyridin-2-yl) pyrimidine-2,4-diamine]
5.00 to 6.00 | 5.00 to 6.00 | Cc1ccnc(Nc2nc(Nc3ccn4ccnc4c3)cc(N3CCN(C)[C@@H](C)C3)n2)c1 [Example 35, (S)-6-(3,4-dimethylpiperazin-1-yl)-N4-(imidazo[1,2-a]pyridin-7-yl)-N2-(4-methylpyridin-2-yl)pyrimidine-2,4-diamine]
5.00 to 6.00 | 5.00 to 6.00 | Cc1ccc(Nc2nc(Nc3ccn4ccnc4c3)cc(N3CCN(C)[C@@H](C)C3)n2)nc1 [Example 37, (S)-6-(3,4-dimethylpiperazin-1-yl)-N4-(imidazo[1,2-a]pyridin-7-yl)-N2-(5-methylpyridin-2-yl)pyrimidine-2,4-diamine]
5.00 to 6.00 | 5.00 to 6.00 | Cc1cccc(Nc2nc(Nc3ccn4ccnc4c3)cc(N3CCN(C)CC3)n2)n1 [Example 39, N4-(imidazo[1,2-a]pyridin-7-yl)-6-(4-methylpiperazin-1-yl)-N2-(6-methylpyridin-2-yl)pyrimidine-2,4-diamine]
5.00 to 6.00 | 5.00 to 6.00 | Cc1cccc(Nc2nc(Nc3ccn4ccnc4c3)cc(N3CCN(C)[C@@H](C)C3)n2)n1 [Example 40, (S)-6-(3,4-dimethylpiperazin-1-yl)-N4-(imidazo[1,2-a]pyridin-7-yl)-N2-(6-methylpyridin-2-yl)pyrimidine-2,4-diamine]
6.00 to 7.00 | 6.00 to 7.00 | Cc1ccnc(Nc2nc(Nc3ccn4ccnc4c3)cc(-n3ccnc3)n2)c1 [Example 42, N4-(imidazo[1,2-a]pyridin-7-yl)-6-(1H-imidazol-1-yl)-N2-(4-methylpyridin-2-yl)pyrimidine-2,4-diamine]
6.00 to 7.00 | > 7.00 | Cc1ccc(Nc2nc(Nc3ccn4ccnc4c3)cc(-n3ccnc3)n2)nc1 [Example 43, N4-(imidazo[1,2-a]pyridin-7-yl)-6-(1H-imidazol-1-yl)-N2-(5-methylpyridin-2-yl)pyrimidine-2,4-diamine]
6.00 to 7.00 | > 7.00 | FC(F)(F)c1ccnc(Nc2nc(Nc3ccn4ccnc4c3)cc(N3CCOCC3)n2)c1 [Example 47, N4-(imidazo[1,2-a]pyridin-7-yl)-6-morpholino-N2-(4-(trifluoromethyl)pyridin-2-yl) pyrimidine-2,4-diamine]
> 7.00 | > 7.00 | COc1ccnc(Nc2nc(Nc3ccn4ccnc4c3)cc(N3CCOCC3)n2)c1 [Example 48, N4-(imidazo[1,2-a]pyridin-7-yl)-N2-(4-methoxypyridin-2-yl)-6-morpholinopyrimidine-2,4-diamine]
5.00 to 6.00 | 6.00 to 7.00 | O=[N+]([O-])c1ccnc(Nc2nc(Nc3ccn4ccnc4c3)cc(N3CCOCC3)n2)c1 [Example 49, N4-(imidazo[1,2-a]pyridin-7-yl)-6-morpholino-N2-(4-nitropyridin-2-yl)pyrimidine-2,4-diamine]
5.00 to 6.00 | 6.00 to 7.00 | CCOc1ccc(Nc2nc(Nc3ccn4ccnc4c3)cc(N3CCCCC3)n2)cn1 [Example 51, N2-(6-ethoxypyridin-3-yl)-N4-(imidazo[1,2-a]pyridin-7-yl)-6-(piperidin-1-yl)pyrimidine-2,4-diamine]

Second part, the compound before the results:

SMILES | pIC50 [1] | pIC50 [2]
CCOc1cc(Nc2ccn3ccnc3c2)nc(Nc2cccc(C)n2)n1 [Example 29, 6-ethoxy-N4-(imidazo[1,2-a]pyridin-7-yl)-N2-(6-methylpyridin-2-yl)pyrimidine-2,4-diamine] | 6.00 to 7.00 | 6.00 to 7.00
Cc1cc(C)nc(Nc2nc(Nc3ccn4ccnc4c3)cc(N3CCN(C)CC3)n2)c1 [Example 30, N2-(4,6-dimethylpyridin-2-yl)-N4-(imidazo[1,2-a]pyridin-7-yl)-6-(4-methylpiperazin-1-yl) pyrimidine-2,4-diamine] | > 7.00 | > 7.00
Cc1cc(C)nc(Nc2nc(Nc3ccn4ccnc4c3)cc(N3CCN[C@@H](C)C3)n2)c1 [Example 31, (S)-N2-(4,6-dimethylpyridin-2-yl)-N4-(imidazo[1,2-a]pyridin-7-yl)-6-(3-methylpiperazin-1-yl)pyrimidine-2,4-diamine] | 6.00 to 7.00 | 6.00 to 7.00
CCOc1cc(Nc2ccn3ccnc3c2)nc(Nc2cc(C)cc(C)n2)n1 [Example 33, N2-(4,6-dimethylpyridin-2-yl)-6-ethoxy-N4-(imidazo[1,2-a]pyridin-7-yl)pyrimidine-2,4-diamine] | 6.00 to 7.00 | > 7.00
CCOc1cc(Nc2ccn3ccnc3c2)nc(Nc2cc(C)ccn2)n1 [Example 36, 6-ethoxy-N4-(imidazo[1,2-a]pyridin-7-yl)-N2-(4-methylpyridin-2-yl) pyrimidine-2,4-diamine] | 5.00 to 6.00 | 5.00 to 6.00
CCOc1cc(Nc2ccn3ccnc3c2)nc(Nc2ccc(C)cn2)n1 [Example 38, 6-ethoxy-N4-(imidazo[1,2-a]pyridin-7-yl)-N2-(5-methylpyridin-2-yl)pyrimidine-2,4-diamine] | 6.00 to 7.00 | 6.00 to 7.00
Cc1cccc(Nc2nc(Nc3ccn4ccnc4c3)cc(-n3ccnc3)n2)n1 [Example 41, N4-(imidazo[1,2-a]pyridin-7-yl)-6-(1H-imidazol-1-yl)-N2-(6-methylpyridin-2-yl)pyrimidine-2,4-diamine] | 6.00 to 7.00 | > 7.00
Cc1ccc(Nc2nc(N)cc(Nc3ccn4ccnc4c3)n2)nc1 [Example 44] | > 7.00 | > 7.00
Cc1cc(C)nc(Nc2nc(Nc3ccn4ccnc4c3)cc(N3CCN(C)[C@@H](C)C3)n2)c1 [Example 45, (S)-6-(3,4-dimethylpiperazin-1-yl)-N2-(4,6-dimethylpyridin-2-yl)-N4-(imidazo[1,2-a]pyridin-7-yl)pyrimidine-2,4-diamine] | 5.00 to 6.00 | > 7.00
Cc1cc(C)nc(Nc2nc(Nc3ccn4ccnc4c3)cc(-n3ccnc3)n2)c1 [Example 46] | 6.00 to 7.00 | > 7.00
Cc1ccnc(Nc2nc(N)cc(Nc3ccn4ccnc4c3)n2)c1 [Example 50, N4-(imidazo[1,2-a]pyridin-7-yl)-N2-(4-methylpyridin-2-yl) pyrimidine-2,4,6-triamine] | > 7.00 | > 7.00
